Reference: ChEMBL document CHEMBL1201862, “PubChem BioAssay data set” (2004)
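The compound was tested at five concentrations on cells cultured in 96-well plates, with a 48-hour exposure period. Abbreviation: GI50, concentration required for 50% inhibition of growth.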 Activity calls are given as the source filed them. Rule as the data show it: active = GI50 up to about 1.1 µM and inactive = higher.

How the values were obtained:
Experiment in all cases: NCI anticancer screen, dose series, 48 h
A549 = tested on: A549
BT-549 = tested on: BT-549
CCRF-CEM = tested on: CCRF-CEM
HCT-116 = tested on: HCT-116
HOP-62 = tested on: HOP-62
HT-29 = tested on: HT-29
IGROV-1 = tested on: IGROV-1
KM12 = tested on: KM12
MDA-MB-231 = tested on: MDA-MB-231
NCI-H460 = tested on: NCI-H460
RPMI-8226 = tested on: RPMI-8226
SF-268 = tested on: SF-268
SN12C = tested on: SN12C
SW-620 = tested on: SW-620
T47D = tested on: T47D
TK-10 = tested on: TK-10

Measured: GI50

CN(C)Cc1cc(/N=N/c2ccccc2Cl)cc(CN(C)C)c1O
inactive: A549 77.4 µM | BT-549 53.1 µM | CCRF-CEM 25.6 µM | HCT-116 53 µM | HOP-62 6.67 µM | HT-29 42.9 µM | IGROV-1 58.1 µM | KM12 77.6 µM | MDA-MB-231 98.4 µM | NCI-H460 47.2 µM | RPMI-8226 > 100 µM | SF-268 73.8 µM | SN12C > 100 µM | SW-620 90.2 µM | T47D > 100 µM | TK-10 > 100 µM

O=S(=O)(O)c1ccc2c(/N=N/c3ccccc3Cl)c(O)ccc2c1
inactive: A549 > 100 µM | BT-549 > 100 µM | CCRF-CEM > 100 µM | HCT-116 > 100 µM | HOP-62 > 100 µM | HT-29 > 100 µM | IGROV-1 > 100 µM | KM12 > 100 µM | MDA-MB-231 > 100 µM | RPMI-8226 > 100 µM | SF-268 > 100 µM | SN12C > 100 µM | SW-620 > 100 µM | T47D > 100 µM | TK-10 > 100 µM

C/C(=C/CC[C@](C)(OC1OC(CO)C(O)C(O)C1O)[C@H]1CC[C@]2(C)[C@@H]1CC[C@@H]1[C@@]3(C)CC[C@H](O)C(C)(C)[C@@H]3C[C@H](O)[C@]12C)CO (stereo partly specified)
inactive: A549 39.5 µM | BT-549 12.5 µM | CCRF-CEM 27.9 µM | HCT-116 18.2 µM | HOP-62 26.3 µM | HT-29 11.6 µM | IGROV-1 38 µM | KM12 22.7 µM | MDA-MB-231 31.3 µM | NCI-H460 16.8 µM | RPMI-8226 5.4 µM | SF-268 21.8 µM | SN12C 22 µM | SW-620 27.4 µM | T47D 16.9 µM | TK-10 55.7 µM

CN1Cc2ccccc2S(=O)(=O)n2cccc2C1=O
inactive: A549 > 100 µM | BT-549 > 100 µM | CCRF-CEM > 100 µM | HCT-116 > 100 µM | HOP-62 > 100 µM | IGROV-1 > 100 µM | KM12 > 100 µM | MDA-MB-231 > 100 µM | NCI-H460 > 100 µM | RPMI-8226 > 100 µM | SN12C > 100 µM | SW-620 > 100 µM | T47D 32.8 µM | TK-10 > 100 µM

CCOc1ccc(C(c2c(O)c3ccccc3oc2=O)c2c(O)c3ccccc3oc2=O)cc1
inactive: A549 69.8 µM | BT-549 67.8 µM | CCRF-CEM 27 µM | HCT-116 48.4 µM | HOP-62 61.5 µM | HT-29 40.9 µM | IGROV-1 > 100 µM | KM12 56.9 µM | MDA-MB-231 58.5 µM | RPMI-8226 32.2 µM | SF-268 44.5 µM | SN12C 43.8 µM | SW-620 79.4 µM | T47D 41.4 µM | TK-10 49.5 µM

CC1(C)CC[C@]2(C(=O)O)CC[C@]3(C)[C@H](C(=O)C=C4[C@@]5(C)C=C(C#N)C(=O)C(C)(C)[C@@H]5CC[C@]43C)[C@@H]2C1 [BARDOXOLONE]
inactive: A549 1.16 µM | MDA-MB-231 1.31 µM
active: BT-549 0.731 µM | CCRF-CEM 0.22 µM | HCT-116 0.294 µM | HOP-62 0.665 µM | HT-29 0.495 µM | IGROV-1 0.762 µM | KM12 0.279 µM | NCI-H460 0.486 µM | RPMI-8226 0.0214 µM | SF-268 0.659 µM | SN12C 0.493 µM | SW-620 0.492 µM | T47D 0.414 µM | TK-10 0.678 µM

CC(C)(C)c1ccc(O)c(CN(Cc2c(O)ccc3ccccc23)C2CCCCC2)c1
inactive: A549 18.5 µM | BT-549 19.6 µM | CCRF-CEM 13.9 µM | HCT-116 16.9 µM | HOP-62 17.6 µM | HT-29 16 µM | IGROV-1 15.7 µM | KM12 17.6 µM | MDA-MB-231 16.8 µM | NCI-H460 15.8 µM | RPMI-8226 26.6 µM | SF-268 16.1 µM | SN12C 17.3 µM | SW-620 24.4 µM | T47D 17.9 µM | TK-10 15.8 µM

CC(C)[C@H]1NC(=O)[C@H]2N=C(S[C@H]2C)[C@@H]2CCCN2C(=O)[C@H](Cc2ccccc2)NC(=O)[C@@H]2CSC(=N2)[C@@H](Cc2ccccc2)NC(=O)[C@@H]2CSC1=N2
inactive: A549 17.3 µM | BT-549 > 50 µM | CCRF-CEM 12.3 µM | HCT-116 30.9 µM | HOP-62 > 50 µM | HT-29 25.8 µM | IGROV-1 29 µM | KM12 12.3 µM | MDA-MB-231 > 50 µM | RPMI-8226 7.62 µM | SF-268 45.6 µM | SN12C 40.2 µM | SW-620 18.1 µM | T47D 35 µM | TK-10 21.7 µM

CCN(CC)CC[n+]1ccc2c(C)c3[nH]c4ccccc4c3c(C)c2c1
inactive: BT-549 1.3 µM | HOP-62 1.22 µM | TK-10 4.41 µM
active: CCRF-CEM 0.204 µM | HT-29 0.684 µM | KM12 0.338 µM | MDA-MB-231 0.65 µM | NCI-H460 0.251 µM | RPMI-8226 0.367 µM | SF-268 0.164 µM | SN12C 0.285 µM | SW-620 0.51 µM | T47D 0.188 µM

C=C1[C@H](OC(=O)C(C)C)[C@]23CC4(O)[C@@H]5[C@@]6(C)CCC[C@]57C([C@@H]2C[C@@]1(O)[C@H](O)[C@@H]73)N4C6
inactive: A549 > 100 µM | BT-549 > 100 µM | CCRF-CEM > 100 µM | HCT-116 > 100 µM | HOP-62 > 100 µM | HT-29 > 100 µM | IGROV-1 > 100 µM | KM12 > 100 µM | MDA-MB-231 > 100 µM | NCI-H460 > 100 µM | RPMI-8226 > 100 µM | SF-268 > 100 µM | SW-620 > 100 µM | T47D > 100 µM | TK-10 > 100 µM

COC(=O)C1=C(C(=O)OC)C2(/N=C(\Nc3ccccc3)c3ccccc3)N(c3ccc(OC)cc3)CC(c3ccccc3)N2O1 (stereo unspecified)
inactive: A549 > 100 µM | BT-549 > 100 µM | CCRF-CEM > 100 µM | HCT-116 > 100 µM | HOP-62 > 100 µM | HT-29 > 100 µM | IGROV-1 > 100 µM | KM12 > 100 µM | MDA-MB-231 > 100 µM | NCI-H460 > 100 µM | SF-268 > 100 µM | SN12C > 100 µM | SW-620 > 100 µM | T47D > 100 µM | TK-10 > 100 µM

CCOC(=O)c1c(N2CCCC2)[nH]c(=O)c(C(c2c(O)c(C(=O)OCC)c(N3CCCC3)[nH]c2=O)C(C)C)c1O
inactive: A549 > 100 µM | BT-549 32.4 µM | CCRF-CEM > 100 µM | HCT-116 > 100 µM | HOP-62 94.4 µM | HT-29 > 100 µM | KM12 > 100 µM | MDA-MB-231 21.7 µM | NCI-H460 > 100 µM | RPMI-8226 > 100 µM | SF-268 72.4 µM | SN12C > 100 µM | SW-620 > 100 µM | T47D > 100 µM | TK-10 42.4 µM

CN(CCN(C)C(=S)NN)C(=S)NN
inactive: A549 > 100 µM | BT-549 > 100 µM | CCRF-CEM > 100 µM | HCT-116 > 100 µM | HOP-62 > 100 µM | HT-29 > 100 µM | IGROV-1 > 100 µM | KM12 > 100 µM | MDA-MB-231 > 100 µM | NCI-H460 > 100 µM | RPMI-8226 > 100 µM | SF-268 > 100 µM | SN12C > 100 µM | SW-620 > 100 µM | T47D > 100 µM

Cc1ccc(S(=O)(=O)CC2CCCn3c2c(C#N)c2ccccc23)cc1 (stereo unspecified)
inactive: A549 > 100 µM | BT-549 > 100 µM | CCRF-CEM > 100 µM | HCT-116 > 100 µM | HOP-62 > 100 µM | HT-29 > 100 µM | IGROV-1 > 100 µM | KM12 > 100 µM | MDA-MB-231 > 100 µM | RPMI-8226 > 100 µM | SF-268 > 100 µM | SN12C > 100 µM | SW-620 > 100 µM | T47D 73.3 µM | TK-10 > 100 µM

CC(=O)OCC1OC(NC(=S)Nn2c(=O)[nH]c3ccccc3c2=O)C(OC(C)=O)C(OC(C)=O)C1OC(C)=O (stereo unspecified)
inactive: A549 > 100 µM | BT-549 > 100 µM | CCRF-CEM 49.5 µM | HCT-116 > 100 µM | HOP-62 > 100 µM | HT-29 > 100 µM | IGROV-1 > 100 µM | KM12 > 100 µM | MDA-MB-231 > 100 µM | NCI-H460 > 100 µM | RPMI-8226 > 100 µM | SF-268 > 100 µM | SN12C > 100 µM | SW-620 > 100 µM | T47D > 100 µM

COc1ccc(-n2nnc(C(N)=O)c2O)cc1
inactive: A549 > 100 µM | BT-549 > 100 µM | CCRF-CEM > 100 µM | HCT-116 > 100 µM | HOP-62 > 100 µM | HT-29 > 100 µM | IGROV-1 > 100 µM | KM12 > 100 µM | MDA-MB-231 > 100 µM | NCI-H460 > 100 µM | RPMI-8226 > 100 µM | SF-268 > 100 µM | SN12C > 100 µM | SW-620 > 100 µM | T47D > 100 µM

C=CCN1CCC(OC(=O)C(O)(C#CC)C2CCCC2)CC1 (stereo unspecified)
inactive: A549 > 100 µM | BT-549 > 100 µM | HCT-116 > 100 µM | HOP-62 > 100 µM | HT-29 > 100 µM | IGROV-1 > 100 µM | KM12 > 100 µM | MDA-MB-231 > 100 µM | NCI-H460 > 100 µM | RPMI-8226 > 100 µM | SF-268 > 100 µM | SN12C > 100 µM | SW-620 > 100 µM | T47D > 100 µM | TK-10 > 100 µM
